Measured values published in US11530206B2, “Phenylaminopyrimidine amide autophagy inhibitors and methods of use thereof” (Deciphera Pharmaceuticals, LLC, priority 2019, dated 2022).

Tests used:
ULK1 kinase [1] = target: T1, ULK1 kinase (Homo sapiens, UniProt O75385); assay: Biochemical assay for ULK1.2 (coupled pyruvate kinase/lactate dehydrogenase assay); conditions: 19 nM ULK1 (residues 1-314, His tag), myelin basic protein, 1 mM ATP
T1 construct: purchased Eurofins 14-959
T1 sequence (O75385 with tags, fused parts or gaps): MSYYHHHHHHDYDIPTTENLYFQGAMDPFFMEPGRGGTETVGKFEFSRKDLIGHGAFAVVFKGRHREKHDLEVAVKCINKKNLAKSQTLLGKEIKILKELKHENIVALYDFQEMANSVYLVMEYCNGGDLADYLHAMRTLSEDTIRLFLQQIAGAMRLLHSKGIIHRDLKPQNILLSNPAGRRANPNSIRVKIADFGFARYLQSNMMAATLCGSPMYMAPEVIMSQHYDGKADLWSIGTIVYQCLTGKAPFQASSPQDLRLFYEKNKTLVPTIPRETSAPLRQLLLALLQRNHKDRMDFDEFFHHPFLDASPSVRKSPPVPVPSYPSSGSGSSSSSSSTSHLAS
Experimental: Biochemical Assay for ULK1.2 (SEQ. ID NO: 1)
Inhibition of ULK1 was measured by adding serial diluted test compound (final assay concentration of 1% DMSO). A decrease in absorption at 340 nm was monitored continuously for 6 hours at 30° C. on a multi-mode microplate reader (BioTek). The reaction rate was calculated using the 2-3 h time frame. The reaction rate at each concentration of compound was converted to percent inhibition using controls (i.e. reaction with no test compound and reaction with a known inhibitor) and IC50 values were calculated by fitting a four-parameter sigmoidal curve to the data using Prism (GraphPad software).

ULK2 kinase = target: T2, ULK2 kinase (Homo sapiens, UniProt Q8IYT8); assay: Biochemical assay for ULK2 (coupled pyruvate kinase/lactate dehydrogenase assay); conditions: 9.7 nM ULK2 (residues 1-306, GST and His tag), myelin basic protein, 1 mM ATP; read-out: ULK2.2
T2 construct: purchased Eurofins 14-772
Experimental: Example 132. Biochemical Assay for ULK2 (SEQ. ID NO: 3)
Activity of ULK2 kinase was determined spectroscopically using a coupled pyruvate kinase/lactate dehydrogenase assay that continuously monitors the ATP hydrolysis-dependent oxidation of NADH (e.g., Schindler et al. Science (2000) 289: 1938-1942). Assays were conducted in 384-well plates (100 uL final volume) using 9.7 nM ULK2 (Eurofins CAT #14-772), 0.25 mg/mL myelin basic protein, 1.5 units pyruvate kinase, 2.1 units lactate dehydrogenase, 1 mM phosphoenol pyruvate, 0.28 mM NADH and 1 mM ATP in assay buffer (100 mM Tris, pH 7.5, 15 mM MgCl2, 0.5 mM DTT, 0.1% octyl-glucoside, 0.002% (w/v) BSA, and 0.002% Triton X-100). Inhibition of ULK2 was measured by adding serial diluted test compound (final assay concentration of 1% DMSO). A decrease in absorption at 340 nm was monitored continuously for 6 hours at 30° C. on a multi-mode microplate reader (BioTek). The reaction rate was calculated using the 2-3 h time frame. The reaction rate at each concentration of compound was converted to percent inhibition using controls (i.e. reaction with no test compound and reaction with a known inhibitor) and IC50 values were calculated by fitting a four-parameter sigmoidal curve to the data using Prism (GraphPad software).

LRRK2 kinase = target: T3, LRRK2 kinase (Homo sapiens, UniProt Q5S007); assay: Biochemical assay for LRRK2 (coupled pyruvate kinase/lactate dehydrogenase assay); conditions: 26.4 nM LRRK2 (residues 970-2528), peptide substrate, 1 mM ATP
T3 construct: purchased Thermo Fisher
Procedure, shortened: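 Recombinant LRRK2 (26.4 nM) with 0.1 mM peptide substrate and 1 mM ATP in Tris pH 7.5/MgCl2 buffer; ADP production coupled via PK/LDH to NADH oxidation, A340 read continuously 6 h at 30 °C. Rates from 2–3 h window converted to % inhibition versus no-compound and reference-inhibitor controls; IC50 fitted.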

ULK1 kinase [2] = target: T4, ULK1 kinase (Homo sapiens, UniProt O75385, E37A/K38A); assay: Biochemical assay for ULK1.3 (coupled pyruvate kinase/lactate dehydrogenase assay, peptide substrate); conditions: 0.1 nM ULK1 (residues 1-283), 1 mM ATP
T4 construct: purchased Beryllium
T4 sequence (O75385 1-283 E37A/K38A): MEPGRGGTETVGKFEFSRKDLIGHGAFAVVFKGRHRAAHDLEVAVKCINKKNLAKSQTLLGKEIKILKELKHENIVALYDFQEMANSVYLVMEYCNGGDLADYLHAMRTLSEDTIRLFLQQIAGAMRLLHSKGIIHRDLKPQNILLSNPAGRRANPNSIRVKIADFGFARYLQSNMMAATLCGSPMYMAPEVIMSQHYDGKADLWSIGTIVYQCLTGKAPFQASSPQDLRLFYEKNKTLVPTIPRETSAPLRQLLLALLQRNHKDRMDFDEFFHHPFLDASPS
Procedure, shortened: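 ULK1.3 activity was followed by continuous decrease in 340 nm absorbance over 6 h at 30 °C with 1% DMSO final. Rates were taken from the 2–3 h window and converted to percent inhibition against no-compound and known-inhibitor controls. IC50 values came from curve fitting.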

ULK kinase [3] = assay: pATG13 levels of mutant KRas A549 cells after treatment with ULK inhibitors in combination with trametinib (ELISA); type: cell-based, human; conditions: A549 (KRAS mutant) lung cancer cells, 250 nM trametinib, overnight, pS318-ATG13
Procedure, shortened: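 Lysates with phosphatase/protease inhibitors assayed by pATG13 ELISA, A450 minus A540 background and blank-corrected. % ATG13 phosphorylation versus DMSO controls fitted to IC50.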

ULK kinase [4] = assay: pATG13 levels of mutant KRas MiaPaCa-2 cells after treatment with ULK inhibitors in combination with trametinib (ELISA); type: cell-based, human; conditions: MiaPaCa-2 pancreatic cancer cells, 250 nM trametinib, overnight, pS318-ATG13
Procedure, shortened: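 MiaPaCa-2 cells in DMEM with 10% FBS and 2.5% horse serum were pretreated with trametinib or DMSO, then given a test-compound dose response overnight at 37° C. Lysates were assayed for phospho-ATG13 by ELISA (A450 minus A540 background, blank-corrected). % phosphorylation was calculated relative to controls and fitted to IC50.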

ULK kinase [5] = assay: pATG13 levels of mutant KRas HCT-116 cells after treatment with ULK inhibitors in combination with trametinib (ELISA); type: cell-based, human; conditions: HCT-116 colon cancer cells, 250 nM trametinib, overnight, pS318-ATG13
Experimental: The following day, 10 μL of media containing trametinib or DMSO as a control was added to wells. […] A dose response of a test compound (0.6 μL per well) was added. DMSO (0.6 μL) was added to control wells. The plate was briefly shaken to mix wells and then incubated at 37° C. overnight. The next day, the media was aspirated and cells were washed with Dulbecco's Phosphate Buffered Saline (Gibco). Cells were lysed using MPER lysis buffer (Pierce, Rockford, Ill.) containing Halt Phosphatase and Protease Inhibitors (Pierce, Rockford, Ill.) and Phosphatase inhibitor cocktail 2 (Sigma, St. Louis, Mo.) at 4° C. for 10 minutes with shaking.
(§1) Plate wells were washed with ELISA wash buffer. Cell lysate was added to wells and incubated at room temperature for 2 hours. Plate wells were washed with ELISA wash buffer. […] Plate wells were washed with ELISA wash buffer. […] Plate wells were washed with ELISA wash buffer. […] The reaction was stopped with 2N Sulfuric Acid. The plate was analyzed at on a plate reader measuring absorbance at 450 nm and 540 nm (background). Signal was calculated by first subtracting the background absorbance at 540 nm from the absorbance at 450 nm for each well. Next, the background corrected absorbance at 450 nm from blank wells was subtracted from test wells. Data was compared to control wells to determine % ATG13 phosphorylation. GraphPad Prism was used to calculate IC50 values.

ULK kinase [6] = assay: pATG13 levels of mutant BRAF A375 cells after treatment with ULK inhibitors in combination with trametinib (ELISA); type: cell-based, human; conditions: A375 malignant melanoma cells (mutant BRAF), 250 nM trametinib, overnight, pS318-ATG13
Experimental: A375 human malignant melanoma cancer cells (20000 cells/well) were added to a 96-well tissue-culture treated plate in 100 μL of pre-warmed DMEM medium supplemented with 10% characterized fetal bovine serum (Invitrogen, Carlsbad, Calif.), 100 units/mL penicillin G, and 100 μg/mL streptomycin and allowed to grow overnight at 37° C., 5% CO2, and 95% humidity. The following day, 100 μL of media containing trametinib or DMSO as a control was added to wells. […] A dose response of a test compound (0.5 μL per well) was added. DMSO (0.5 μL) was added to control wells. The plate was briefly shaken to mix wells and then incubated at 37° C. overnight. The next day, the media was aspirated and cells were washed with Dulbecco's Phosphate Buffered Saline (Gibco). Cells were lysed using MPER lysis buffer (Pierce, Rockford, Ill.) containing Halt Phosphatase and Protease Inhibitors (Pierce, Rockford, Ill.) and Phosphatase inhibitor cocktail 2 (Sigma, St. Louis, Mo.) at 4° C. for 10 minutes with shaking.
as §1

T3 sequence (Q5S007 with tags, fused parts or gaps): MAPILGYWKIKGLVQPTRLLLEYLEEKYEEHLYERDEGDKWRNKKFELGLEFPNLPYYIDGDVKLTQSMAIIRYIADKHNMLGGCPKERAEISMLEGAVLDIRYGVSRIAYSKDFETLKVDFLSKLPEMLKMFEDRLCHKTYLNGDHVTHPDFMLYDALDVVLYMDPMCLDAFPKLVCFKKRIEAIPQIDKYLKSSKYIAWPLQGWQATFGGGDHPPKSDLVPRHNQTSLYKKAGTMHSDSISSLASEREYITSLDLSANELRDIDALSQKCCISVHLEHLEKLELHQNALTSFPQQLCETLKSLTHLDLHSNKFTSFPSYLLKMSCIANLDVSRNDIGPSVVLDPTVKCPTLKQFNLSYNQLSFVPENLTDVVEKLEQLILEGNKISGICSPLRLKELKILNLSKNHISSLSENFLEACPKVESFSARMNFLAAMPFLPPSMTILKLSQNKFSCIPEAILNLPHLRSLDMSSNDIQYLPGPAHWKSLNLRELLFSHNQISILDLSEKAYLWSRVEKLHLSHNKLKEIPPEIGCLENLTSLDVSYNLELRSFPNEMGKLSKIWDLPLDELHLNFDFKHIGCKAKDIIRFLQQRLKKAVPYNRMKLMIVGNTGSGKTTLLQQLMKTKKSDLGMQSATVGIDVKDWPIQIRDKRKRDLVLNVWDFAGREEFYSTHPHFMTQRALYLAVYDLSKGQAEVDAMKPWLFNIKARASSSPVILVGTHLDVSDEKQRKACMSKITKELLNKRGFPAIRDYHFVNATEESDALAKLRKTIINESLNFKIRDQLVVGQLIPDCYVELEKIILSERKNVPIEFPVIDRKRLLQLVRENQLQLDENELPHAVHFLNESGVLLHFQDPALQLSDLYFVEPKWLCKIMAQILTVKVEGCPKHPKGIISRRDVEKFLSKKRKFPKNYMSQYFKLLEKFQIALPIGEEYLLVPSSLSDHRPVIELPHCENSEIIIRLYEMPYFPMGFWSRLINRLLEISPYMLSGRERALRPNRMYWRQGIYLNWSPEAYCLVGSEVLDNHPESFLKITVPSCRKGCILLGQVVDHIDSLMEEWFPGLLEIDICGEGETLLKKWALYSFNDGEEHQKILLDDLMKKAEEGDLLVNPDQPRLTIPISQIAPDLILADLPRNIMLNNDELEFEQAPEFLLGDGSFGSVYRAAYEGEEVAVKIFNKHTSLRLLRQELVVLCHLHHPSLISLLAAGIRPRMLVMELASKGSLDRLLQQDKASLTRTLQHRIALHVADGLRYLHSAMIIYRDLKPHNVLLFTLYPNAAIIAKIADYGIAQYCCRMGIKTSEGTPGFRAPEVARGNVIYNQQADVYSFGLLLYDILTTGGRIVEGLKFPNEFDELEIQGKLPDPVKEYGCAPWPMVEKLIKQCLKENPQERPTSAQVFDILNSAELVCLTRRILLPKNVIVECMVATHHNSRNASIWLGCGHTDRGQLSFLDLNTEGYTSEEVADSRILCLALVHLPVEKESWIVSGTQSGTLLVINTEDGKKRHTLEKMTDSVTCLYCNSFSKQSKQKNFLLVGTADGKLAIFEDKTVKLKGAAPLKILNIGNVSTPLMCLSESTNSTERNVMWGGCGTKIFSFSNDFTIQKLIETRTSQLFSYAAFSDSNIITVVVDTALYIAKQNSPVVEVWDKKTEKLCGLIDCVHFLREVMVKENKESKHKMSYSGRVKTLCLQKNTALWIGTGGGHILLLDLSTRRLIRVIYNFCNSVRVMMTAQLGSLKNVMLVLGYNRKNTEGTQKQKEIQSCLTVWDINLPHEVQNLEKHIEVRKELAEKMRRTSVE
T2 sequence (Q8IYT8 with tags, fused parts or gaps): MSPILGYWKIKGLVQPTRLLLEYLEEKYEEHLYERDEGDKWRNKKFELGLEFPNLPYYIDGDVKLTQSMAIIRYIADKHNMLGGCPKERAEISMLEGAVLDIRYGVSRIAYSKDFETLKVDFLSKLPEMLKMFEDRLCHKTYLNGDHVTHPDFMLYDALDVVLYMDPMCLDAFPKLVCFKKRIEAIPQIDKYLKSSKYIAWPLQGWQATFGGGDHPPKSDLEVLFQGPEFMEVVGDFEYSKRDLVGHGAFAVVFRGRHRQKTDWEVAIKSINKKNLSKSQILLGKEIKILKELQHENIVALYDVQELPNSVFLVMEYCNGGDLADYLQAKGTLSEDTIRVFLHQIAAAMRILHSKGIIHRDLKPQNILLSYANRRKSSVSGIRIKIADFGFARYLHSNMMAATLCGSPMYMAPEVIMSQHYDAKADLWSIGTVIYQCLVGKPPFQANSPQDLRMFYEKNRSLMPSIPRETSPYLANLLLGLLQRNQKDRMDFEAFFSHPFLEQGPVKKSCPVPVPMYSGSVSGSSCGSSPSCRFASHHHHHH

| Compound | IC50 (ULK1 kinase [1]) | IC50 (ULK2 kinase) | IC50 (LRRK2 kinase) | IC50 (ULK1 kinase [2]) | IC50 (ULK kinase [3]) | IC50 (ULK kinase [4]) | IC50 (ULK kinase [5]) | IC50 (ULK kinase [6]) |
| --- | --- | --- | --- | --- | --- | --- | --- | --- |
| O=C1COCCCN1CCCNc1nc(Nc2ccc(N3CCOCC3)cc2C2CC2)ncc1C(F)(F)F [Example 51] | 0.1 to 0.5 µM | > 0.5 µM | 0.001 to 0.1 µM |  |  |  |  |  |
| Cc1cc(N2CCN(C)CC2)ncc1Nc1ncc(C(F)(F)F)c(NCCCN2CCCCC2=O)n1 [Example 91] | 0.025 to 0.1 µM | 0.1 to 0.5 µM |  | 0.025 to 0.1 µM | 0.1 to 0.3 µM | > 0.6 µM |  |  |
| CCc1cc(N2CCN3CCC[C@@H]3C2)ccc1Nc1ncc(C(F)(F)F)c(NCCCN2CCCOC2=O)n1 [Example 106] |  |  | 0.1 to 0.3 µM | 0.001 to 0.025 µM | 0.01 to 0.1 µM | 0.01 to 0.1 µM | 0.01 to 0.1 µM |  |
| Cc1cc(-c2cnn(C)c2)ccc1Nc1ncc(C(F)(F)F)c(NCCCN2CCCCC2=O)n1 [Example 108] | > 0.5 µM | > 0.5 µM | 0.001 to 0.1 µM |  |  |  |  |  |
| Cc1cc(N2CCN(CCF)CC2)ccc1Nc1ncc(C(F)(F)F)c(NCCCN2CCCCC2=O)n1 [Example 18] | 0.1 to 0.5 µM | 0.025 to 0.1 µM | 0.001 to 0.1 µM |  |  |  |  |  |
| Cc1cc(N2CCNCC2)ccc1Nc1ncc(C(F)(F)F)c(NCCCN2CCOCCC2=O)n1 [Example 75] |  |  |  | 0.001 to 0.025 µM | 0.1 to 0.3 µM | 0.01 to 0.1 µM | 0.1 to 0.3 µM | 0.1 to 0.3 µM |
| O=C1CCOCCN1CCCNc1nc(Nc2ccc(N3CCNCC3)cc2C2CC2)ncc1C(F)(F)F [Example 85] |  |  |  | 0.001 to 0.025 µM | 0.01 to 0.1 µM | 0.01 to 0.1 µM | 0.1 to 0.3 µM | 0.1 to 0.3 µM |
| CCc1cc(N2CCN3CCC[C@@H]3C2)ccc1Nc1ncc(C(F)(F)F)c(NCCCN2CCOCCC2=O)n1 [Example 105] |  |  | 0.001 to 0.1 µM | 0.001 to 0.025 µM | 0.01 to 0.1 µM | 0.01 to 0.1 µM | 0.01 to 0.1 µM |  |
| Cc1cc(N2CCOCC2)ncc1Nc1ncc(C(F)(F)F)c(NCCCN2CCCCC2=O)n1 [Example 90] | > 0.5 µM | > 0.5 µM | 0.3 to 0.6 µM |  |  |  |  |  |
| CCc1cc(N2CCN(C)CC2)ccc1Nc1ncc(C(F)(F)F)c(NCCCN2CCCOCC2=O)n1 [Example 54] | 0.001 to 0.025 µM | 0.025 to 0.1 µM |  |  | 0.01 to 0.1 µM | 0.01 to 0.1 µM | 0.01 to 0.1 µM |  |
| Cc1cc(N2CCNCC2)ccc1Nc1ncc(C(F)(F)F)c(NCCCN2CCCOC2=O)n1 [Example 37] |  |  | 0.1 to 0.3 µM | 0.001 to 0.025 µM | 0.1 to 0.3 µM | 0.01 to 0.1 µM |  | 0.3 to 0.6 µM |
| Cc1cc(-c2cn(C)cn2)ccc1Nc1ncc(C(F)(F)F)c(NCCCN2CCOCCC2=O)n1 [Example 109] | > 0.5 µM | > 0.5 µM | 0.001 to 0.1 µM |  | > 0.6 µM |  |  |  |
| CCc1cc(N2CC3CCC(C2)N3C)ccc1Nc1ncc(C(F)(F)F)c(NCCCN2CCCOC2=O)n1 [Example 69] |  |  | 0.3 to 0.6 µM | 0.001 to 0.025 µM | 0.01 to 0.1 µM | 0.01 to 0.1 µM | 0.01 to 0.1 µM |  |
| Cc1cc(N2CCN(C)CC2)ccc1Nc1ncc(C(F)(F)F)c(NCCCN2CCCCC2=O)n1 [Example 20] | 0.001 to 0.025 µM | 0.025 to 0.1 µM |  |  | 0.3 to 0.6 µM | 0.1 to 0.3 µM | 0.1 to 0.3 µM |  |
| CCc1cc(N2CCN(C)CC2)ccc1Nc1ncc(Cl)c(NCCCN2CCCOCC2=O)n1 [Example 58] | 0.1 to 0.5 µM | > 0.5 µM | 0.1 to 0.3 µM |  | 0.1 to 0.3 µM | 0.01 to 0.1 µM | 0.01 to 0.1 µM |  |
| CCc1cc(N2CCOCC2)ccc1Nc1ncc(C(F)(F)F)c(NCCCN2CCCOCC2=O)n1 [Example 50] | 0.1 to 0.5 µM | > 0.5 µM | 0.001 to 0.1 µM |  | > 0.6 µM | > 0.6 µM |  |  |
